Results reported in patent US8722626B2, “Method for controlling fibrosis and other pathological deposits in tissues comprising administering a GHRP-6 composition” (Centro de Ingenieria Genetica y Biotecnologia, priority 2006, dated 2014).

What was measured:
[1] = system: pulmonary fibrosis in rats (Bleomycin); assay: Control of pulmonary fibrosis induced by Bleomycin in rats (Example 4); type: in vivo, rat; conditions: 4 weeks; for Grade 0 pulmonary fibrosis (no evidences of fibrosis), animals per group / Grade 1 pulmonary fibrosis (predominantly vascular), animals per group / Grade 2 pulmonary fibrosis (additional peri-bronchial compromise), animals per group / Grade 3 pulmonary fibrosis (also interalveolar septum), animals per group: N = 15; for OH—P content (hydroxiproline) in lungs: end of treatment, 15 fragments per group
Method: In this case, the process as induced by sustained administration of the anti-neoplasic agent Bleomycin (Ble) at a 2.5 U/kg dosage twice a week during 4 weeks. […] This point forward, the administration of Ble was suspended and treatment with the pharmaceutical composition containing the GHRP-6 was started. The treatment was applied once daily, at 100 and 400 μg/kg in a 1 ml volume by intraperitoneal route during 4 weeks. […] When treatments concluded, the animals were sacrificed by anesthesia overdose and lungs and blood serum were collected. Tissue fragments were fixed in formalin neutral and processed by hematoxylin/eosin staining, or by Masson's trichromic staining, to evaluate the general damage and the severity of fibrotic indurations. Other fragments of lung tissues were stored at −70° C. until processing to determine the content of hydroxiproline by acid hydrolysis in 1N HCl, and also the […] levels of redox metabolism markers. Biochemical determinations were carried out by calculating the total protein content by the Bradford's method. Histological evaluation of the fibro-proliferative reaction in lungs includes the process of peri-vascular, peri-bronchial and septal fibrosis. The overall grade of pulmonary fibrosis was established according to the extension and intensity of the process in these three segments, to determine the percent of animals affected or unaffected at the end of the treatment with the GHRP-6. The numbers of animals in every group with fibrotic lungs according to the severity of fibrosis are:
Grade 0—No evidences of fibrosis or only thin and diffuse fiber or areolar material foci present, without respiratory compromise.
Grade 1—Fibrosis predominantly vascular in more than 75% of arterioles and capillaries.
Grade 2—Fibrosis predominantly vascular in more than 75% of arterioles and capillaries, with additional peri-bronchial compromise.
Grade 3—Fibrosis predominantly vascular in more than 75% of arterioles and capillaries, with additional peri-bronchial compromise. Fibrotic material is also detected in the interalveolar septum.

[2] = system: male APP transgenic mice expressing the beta-amiloid precursor protein; assay: Beta-amiloid protein deposition in brain of APP transgenic mice (Example 5); type: in vivo, mouse; parameters: SODt (oxidative stress marker) / Catalase (oxidative stress marker) / HPT (oxidative stress marker) / MDA (oxidative stress marker): unit not given here; conditions: 8 weeks; for Catalase (oxidative stress marker) / HPT (oxidative stress marker) / MDA (oxidative stress marker) / SODt (oxidative stress marker): brain tissues; for No. of deposits positive to Congo Red / No. of deposits positive to beta-amiloid / Size of amiloid plaques: brain
Method: This study was conducted to evaluate the influence of the long-term administration (8 weeks) of the GHRP-6 on the biochemical and morphological markers in the brain of transgenic mice expressing the beta-amiloid precursor protein, these markers also indicating the progression of the central nervous system damage. For the present study, 20-25 g in body weight male APP transgenic mice were acquired, expressing the beta-amiloid precursor protein. Animals (N=30) were randomly distributed in:
Placebo group—Physiological saline solution 0.9%.
Dosage I group—GHRP-6 at 50 μg/kg of body weight in saline solution.
Dosage II group—GRHP-6 at 100 μg/kg of body weight in saline solution.
Treatments were applied by the intraperitoneal route in 1 ml, five days a week during 8 weeks, with animals receiving 40 administrations of GHRP-6. We knew from previous exploratory pilot studies that this period of time was sufficient for improving cognitive and motor skills in animals under stress.
After 8 weeks of treatment, mice were sacrificed by anesthesia overdose, and perfused in situ with saline solution. Encephala were extracted, one encephalon was frozen in dry-ice and the other was fixed in 4% para-formaldehyde neutral. Samples were cryo-sliced at 10 μm and slices were stained with hematoxylin/eosin, Congo Red, or incubated with an antibody specific for the beta-amiloid protein. Morphometric procedures were carried out by microscopic imaging capture by a camera connected to the microscope, and the images were analyzed with the DIGIPAT software.
The number of fibrillar deposits of the beta-amiloid protein positive to Congo Red staining.
The number of foci immunoreactive to the antibody that recognizes the beta-amiloid protein.
Size of the beta-amiloid plaques in the brain, recognized at 200× and 400× magnifications (μm^2).
Brain concentration of myo-inositol as indicator of aging and brain metabolism deterioration (μmol/g of tissue).

[3] = system: human keloid fragments xeno-transplanted in athymic mice; assay: Human keloid fragments xeno-transplanted into athymic mice (Example 7); type: in vivo, mouse
From the text: To study the effect of peptides GHRP-6, GHRP-2, Hexarelin and/or Ghrelin in eradicating the pathological deposits of physiological material in the skin, human keloid fragments were xeno-transplanted into the dorsal region in athymic mice. After 72 hrs of evolution, to corroborate grafting and viability of xeno-transplants, the animals (N=6) were randomly distributed into the following experimental groups: • A—Saline control group (vehicle of the active principles). • B—Group receiving GHRP-6. • C—Group receiving GHRP-2. • D—Group receiving Ghrelin. • E—Group receiving Hexarelin. • Treatments were applied once every 24 hrs during 7 days. The substances were infiltrated at the edges in the implants, for local bioavailability of the active principles, at dosages from 5 micrograms to 1 milligram. After the treatment period, the animals were sacrificed and the implants extracted to evaluate the pharmacological response to every substance. Samples were weighed and fragmented for histological studies and biochemical determinations of collagen. The fragments for histological studies were fixed in 10% formalin neutral, and those fragments for biochemical analyses were stored at −70° C. • The parameters studied were: • a—Wet weight of the graft collected. • b—Hydroxiproline content in the tissue. • c—Number of microscopic fields with tissue positive to Picrosirius red staining and trichromic Masson's staining.

[4] = Dosage I: 100 μg/kg i.p. once daily
[5] = Dosage II: 400 μg/kg i.p. once daily
[6] = Dosage I: 50 μg/kg i.p. five days a week
[7] = Dosage II: 100 μg/kg i.p. five days a week
[8] = infiltrated at the edges in the implants once every 24 hrs during 7 days, 5 micrograms to 1 milligram

GHRP-6
Grade 0 pulmonary fibrosis (no evidences of fibrosis), animals per group [1, 4]: 3
Grade 1 pulmonary fibrosis (predominantly vascular), animals per group [1, 4]: 10
Grade 2 pulmonary fibrosis (additional peri-bronchial compromise), animals per group [1, 4]: 2
Grade 3 pulmonary fibrosis (also interalveolar septum), animals per group [1, 4]: 0
OH—P content (hydroxiproline) in lungs [1, 4]: 91.24 ± 16.84 μg/g of total proteins
Grade 0 pulmonary fibrosis (no evidences of fibrosis), animals per group [1, 5]: 8
Grade 1 pulmonary fibrosis (predominantly vascular), animals per group [1, 5]: 7
Grade 2 pulmonary fibrosis (additional peri-bronchial compromise), animals per group [1, 5]: 0
Grade 3 pulmonary fibrosis (also interalveolar septum), animals per group [1, 5]: 0
OH—P content (hydroxiproline) in lungs [1, 5]: 12.75 ± 3.61 μg/g of total proteins
Animals classified as grade 0 (pulmonary fibrosis) ([1]; dosage II: 400 μg/kg i.p. once daily): > 50%
Myo-inositol concentration in the brain. [2, 6]: 49.35 ± 10 μmol/g of tissue
Myo-inositol concentration in the brain. [2, 7]: 27.45 ± 8.61 μmol/g of tissue
Catalase (oxidative stress marker) ([2]; Dosage I: 50 μg/kg i.p.): 81.6 ± 15.25
HPT (oxidative stress marker) ([2]; Dosage I: 50 μg/kg i.p.): 54.3 ± 11.87
MDA (oxidative stress marker) ([2]; Dosage I: 50 μg/kg i.p.): 0.77 ± 1.56
SODt (oxidative stress marker) ([2]; Dosage I: 50 μg/kg i.p.): 611.17 ± 44.79
Catalase (oxidative stress marker) ([2]; Dosage II: 100 μg/kg i.p.): 60.18 ± 13.67
HPT (oxidative stress marker) ([2]; Dosage II: 100 μg/kg i.p.): 21.25 ± 5.44
MDA (oxidative stress marker) ([2]; Dosage II: 100 μg/kg i.p.): 0.4 ± 0.02
SODt (oxidative stress marker) ([2]; Dosage II: 100 μg/kg i.p.): 863.22 ± 50.3
No. of deposits positive to Congo Red [2, 6]: 21.78 ± 6.57
No. of deposits positive to beta-amiloid [2, 6]: 15.11 ± 3.27
Size of amiloid plaques [2, 6]: 15.51 ± 6.44 μm^2
No. of deposits positive to Congo Red [2, 7]: 14.52 ± 4.18
No. of deposits positive to beta-amiloid [2, 7]: 13.58 ± 4.61
Size of amiloid plaques [2, 7]: 10.88 ± 4.1 μm^2
No. of fields positive to collagen-specific staining ([3]; Picrosirius red and trichromic Masson's staining, 4× and 10× averaged, infiltrated once every 24 hrs during 7 days): 11.45
No. of microscopic fields with mast cells (20X magnif.) ([3]; aniline blue staining, infiltrated once every 24 hrs during 7 days): 9.54 ± 2.15
Hydroxiproline content in the tissue [3, 8]: 88.27 ± 4.61 µg/g
Wet weight of the graft collected [3, 8]: 6.71 ± 1.18 a grams
